For assay [1] the following is noted: compared with the respective parent compound; cited from earlier work.
For assay [2] the following is noted: agonist series; cited from earlier work.
Assay [3] deals with T1, vasopressin receptors (^3 H-vasopressin binding) (Sus scrofa, UniProt P32307).
T1 construct: average KD value determined on 3 preparations of hog kidney membranes; from tissue; host or cells: hog kidney medullary membranes
In words: Binding assay, ^3 H-vasopressin, hog kidney membranes. Also on record: species or system Pig. The settings on record: for Kb: KB = IC50/(1+L/KD), ^3 H-vasopressin binding, hog kidney membranes, read-out: anti-ADH activity in vitro (Pig) KB. The protocol: (§1) Details of the in vitro protocols are in F. L. Stassen et al., J. of Pharm. Exp. Ther. 233, 50-54 (1982) but the calculations of cyclase activity and binding potential at the receptor site are as follows:
Test Procedure for Binding Assay:
In each experiment, the amount of ^3 H-vasopressin bound in the absence and in the presence of an excess of vasopressin (7.5×10^-6 M) is measured in triplicate. These values represent total and non-specific binding, respectively. The KB of a compound is derived from the equation for competitive inhibition: KB =IC50 /(1+L/KD), where IC50 is the concentration required for 50% inhibition of specific ^3 H-vasopressin binding, L is the concentration of the ligand, and KD is the dissociation constant of ^3 H-vasopressin (KD =3.6×10^-9 M; 1 SD=0.4×10^-9 M). This is the average KD value determined on 3 preparations of hog kidney membranes.

Assay [4] deals with vasopressin stimulated adenylate cyclase activity. As to the kind of experiment: Assay of adenylate cyclase activity, kidney medullary membrane. The settings on record: pig kidney medullary membrane, read-out: anti-ADH activity in vitro (Pig) Ki. Type of assay: biochemical. The protocol:
as §1
Test Procedure for Assay of Adenylate Cyclase Activity:
In each experiment the amount of ^32 P/cAMP formed in the absence of medullary membrane is determined (blank). The blank value is subtracted from all experimental data. The compound is tested for its effect on basal adenylate cyclase activity and/or on vasopressin stimulated activity. Each determination is carried out in triplicate. The Ka value is derived from a Lineweaver-Burke plot. Rel. Vmax =(Vmax drug/Vmax vasopressin)×100. Ki =I/[(Ka'/Ka)-1] where I is the concentration of the antagonist, and Ka' and Ka are the concentrations of vasopressin required to give half-maximal activity of adenylate cyclase in the presence and absence of antagonist, respectively.

Assay [5] concerns the target T2, vasopressin receptors (V2 -receptors) (Rattus norvegicus, UniProt Q00788).
T2 construct: in vivo, in the hydropenic rat or the hydropenic monkey; from tissue; host or cells: whole animal (male hydropenic rat); renal receptors in situ
As to the kind of experiment: Hydropenic rat protocol (anti-ADH activity in vivo). The note with it: estimated dose of peptide delivered ip which reduces Uosm from hydropenic levels to 300 mOsmoles/kg H2O. As for the experimental part:
as §1
Food and water are removed from male rats approximately 18 hours prior to testing. Animals are housed 4 per metabolism cage. At 0 hour, the test compound is administered intraperitoneally to the test group and an equivalent volume of vehicle is administered to both control groups (fasted and non-fasted). Urine volume and osmolality are measured every hour for 4 hours. Test values are recorded as ml of urine excreted (cumulative), mEq/rat electrolyte excreted, mg/rat urea excreted, and osmolality in milli-Osmoles/kg H2 O. A […] is used to determine significance. ED300 is defined as the dose of compound (μg/kg) required to lower urine osmolality to 300 m-Osmoles/kg. ED500 is defined as the dose of compound (μg/kg) required to lower urine osmolality to 500 m-Osmoles/kg. The hydropenic monkey protocol is similar.

For assay [6], the system named is vasopressin receptors (V2 -receptors). In words: Conscious hydropenic squirrel monkey test (anti-ADH activity). Type of assay: in vivo.
Protocol: Food and water are removed from male rats approximately 18 hours prior to testing. Animals are housed 4 per metabolism cage. At 0 hour, the test compound is administered intraperitoneally to the test group and an equivalent volume of vehicle is administered to both control groups (fasted and non-fasted). Urine volume and osmolality are measured every hour for 4 hours. Test values are recorded as ml of urine excreted (cumulative), mEq/rat electrolyte excreted, mg/rat urea excreted, and osmolality in milli-Osmoles/kg H2 O. A tolerance test is used to determine significance. […] The hydropenic monkey protocol is similar.
In assay [7] the target is vascular pressor sites (V1 -receptors) (Rattus norvegicus, UniProt P30560). From the text:
The second group of vasopressin receptor sites are the vascular pressor sites (V1 -receptors) located within the cardiovascular system itself.

For assay [8] the following is noted: reported by Barth; cited from earlier work.
For assay [9] the following is noted: reported by Barth; cited from earlier work. This is another data set of the same source.

*1 amine or outer side, *2 acyl side, *3 side chain or, on linkers, in order; H or OH if unused. Where a SMILES comes first, the peptide text is derived from it. Bridges are numbered along the chain shown (N, C = ends). Where no end group is shown, it is not given here. [ ]: non-standard residue; d: D form. The star is where a group is joined. X1 = O=C(CC1(S[*:2])CCCCC1)[*:1]; Abu = CC[C@H](N)C(=O)O; NHPr = CCCN*

T1 sequence (P32307 whole entry): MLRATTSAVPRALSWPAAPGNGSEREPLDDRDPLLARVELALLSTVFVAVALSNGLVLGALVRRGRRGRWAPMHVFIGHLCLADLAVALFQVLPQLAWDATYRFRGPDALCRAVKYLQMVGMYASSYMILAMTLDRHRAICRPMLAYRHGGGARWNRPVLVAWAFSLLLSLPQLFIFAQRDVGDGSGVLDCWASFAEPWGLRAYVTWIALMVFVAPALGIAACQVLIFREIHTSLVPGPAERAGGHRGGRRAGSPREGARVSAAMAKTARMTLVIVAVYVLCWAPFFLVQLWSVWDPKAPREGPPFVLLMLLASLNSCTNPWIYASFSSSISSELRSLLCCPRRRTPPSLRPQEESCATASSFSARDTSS
T2 sequence (Q00788 whole entry): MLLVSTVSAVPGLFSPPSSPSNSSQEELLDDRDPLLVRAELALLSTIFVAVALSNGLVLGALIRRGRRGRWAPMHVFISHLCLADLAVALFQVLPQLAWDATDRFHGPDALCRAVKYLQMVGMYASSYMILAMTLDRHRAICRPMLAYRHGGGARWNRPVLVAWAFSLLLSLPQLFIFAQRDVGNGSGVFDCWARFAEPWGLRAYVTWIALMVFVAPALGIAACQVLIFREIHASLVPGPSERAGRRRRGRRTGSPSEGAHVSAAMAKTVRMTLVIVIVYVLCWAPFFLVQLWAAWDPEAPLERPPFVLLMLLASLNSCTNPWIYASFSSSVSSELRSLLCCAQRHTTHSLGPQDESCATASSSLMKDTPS
Sequence of vascular pressor sites (V1 -receptors) (P30560 whole entry): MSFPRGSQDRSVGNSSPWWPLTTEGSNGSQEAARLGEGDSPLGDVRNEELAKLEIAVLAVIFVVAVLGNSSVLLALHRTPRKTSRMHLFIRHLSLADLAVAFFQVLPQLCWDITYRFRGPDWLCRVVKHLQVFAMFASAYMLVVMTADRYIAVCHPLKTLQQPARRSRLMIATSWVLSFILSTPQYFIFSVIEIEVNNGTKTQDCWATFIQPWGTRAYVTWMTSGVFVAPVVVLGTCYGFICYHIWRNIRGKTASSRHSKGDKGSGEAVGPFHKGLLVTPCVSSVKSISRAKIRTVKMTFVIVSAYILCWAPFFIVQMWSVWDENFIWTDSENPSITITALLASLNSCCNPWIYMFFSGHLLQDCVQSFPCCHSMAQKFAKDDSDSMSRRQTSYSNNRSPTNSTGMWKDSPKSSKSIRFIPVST

Regarding “desglycine^9 -oxytocin (CYIQNCPL; disulfide 1-6 (inferred); ends not checked; UniProt P01178 20-28, looked up, variant G9*) [literature agonist analog, B. Berde et al]”, the “activity of the parent compound retained” value in assay [1] is on record as “little”. In addition, in assay [2], the “effect on blood pressure compared with oxytocin” value is listed as “opposite effect”.
Consider `CC(C)[C@@H]1NC(=O)[C@H](Cc2ccccc2)NC(=O)[C@@H](Cc2ccc(O)cc2)NC(=O)CC2(CCCCC2)SSC[C@@H](C(=O)N2CCC[C@H]2C(=O)N[C@@H](CCCNC(=N)N)C(=O)O)NC(=O)[C@H](CC(N)=O)NC1=O` [Compound 3, [1-(β-mercapto-β,β-cyclopentamethylenepropionic acid)-2-D-tyrosine-4-valine-8-arginine-9-desglycinamide]vasopressin] ([dY]FVNCPR-OH; linker N-5 via X1), for which the Kb in [3] is 0.35 µM.
Regarding `CC(C)[C@@H]1NC(=O)[C@H](Cc2ccccc2)NC(=O)[C@@H](Cc2ccc(O)cc2)NC(=O)CC2(CCCCC2)SSC[C@@H](C(=O)N2CCC[C@H]2C(=O)N[C@@H](CCCNC(=N)N)C(=O)NCC(N)=O)NC(=O)[C@H](CC(N)=O)NC1=O` [Compound 1] ([dY]FVNCPRG-NH2; linker N-5 via X1), in assay [4], the inhibition constant (Ki) is 0.03 µM. Further, in assay [5], the “anti-ADH activity in vivo (Rat) ED300” value was 0.032 mg/kg.
Turning to `CCOc1ccc(C[C@H]2NC(=O)CC3(CCCCC3)SSC[C@@H](C(=O)N3CCC[C@H]3C(=O)N[C@@H](CCCNC(=N)N)C(=O)NCC(N)=O)NC(=O)[C@H](CC(N)=O)NC(=O)[C@H](C(C)C)NC(=O)[C@H](Cc3ccccc3)NC2=O)cc1` [Compound 4] ([dY](Et)FVNCPRG-NH2; linker N-5 via X1), the “ED300, dose required to decrease urine osmolality to 300M Osm/kg water” value in assay [6] was determined as 33.1 nmol/kg. Also, in assay [4], the Ki was 0.0059 µM. For the same compound, the “anti-ADH activity in vivo (Rat) ED300” value in assay [5] was 0.0099 mg/kg.
On to `CCOc1ccc(C[C@H]2NC(=O)CC3(CCCCC3)SSC[C@@H](C(=O)N3CCC[C@H]3C(=O)N[C@@H](CCCNC(=N)N)C(N)=O)NC(=O)[C@H](CC(N)=O)NC(=O)[C@H](C(C)C)NC(=O)[C@H](Cc3ccccc3)NC2=O)cc1` [Compound 5, [1-(β-mercapto-β,β-cyclopentamethylenepropionicacid)-2-(O-ethyl-D-tyrosine)-4-valine-8-arginine-9-desglycine]vasopressin] ([dY](Et)FVNCPR-NH2; linker N-5 via X1), for which the Kb in assay [7] is 0.00398 µM; in [3], 0.0078 µM. In assay [7] (in vivo), the “pA2, inhibition of vasopressin-induced vasoconstriction” value turned out to be 7.71.
des-glycinamide^9 -vasopressin: in [1], the “activity of the parent compound retained” value is given as “little”. Also, the “antidiuretic or uterotonic activity” value in [8] is “practically no”. Further, the CNS activity result in [9] is on record as “has CNS activity”.
For “des-lysine^8 -desglycinamide^9 -vasopressin”, the “activity of the parent compound retained” value in [1] is given as “little”.
Take `CC(C)[C@@H]1NC(=O)[C@H](Cc2ccccc2)NC(=O)[C@@H](Cc2ccc(O)cc2)NC(=O)CC2(CCCCC2)SSC[C@@H](C(=O)N2CCC[C@H]2C(=O)N[C@@H](CCCNC(=N)N)C(N)=O)NC(=O)[C@H](CC(N)=O)NC1=O` [Compound 2, [1-(β-mercapto-β,β-cyclopentamethylenepropionic acid)-2-D-tyrosine-4-valine-8-arginine-9-desglycine]vasopressin] ([dY]FVNCPR-NH2; linker N-5 via X1): the Kb in assay [3] is 0.065 µM.
As to `CCCNC(=O)[C@H](CCCNC(=N)N)NC(=O)[C@@H]1CCCN1C(=O)[C@@H]1CSSC2(CCCCC2)CC(=O)N[C@H](CC(C)C)C(=O)N[C@@H](Cc2ccccc2)C(=O)N[C@@H](C(C)C)C(=O)N[C@@H](CC(N)=O)C(=O)N1` [Example 4] ([dL]FVNCPR-NHPr; linker N-5 via X1), the inhibition at 10 µM in assay [3] (at 10^-5 M, read-out: Kbind, inhibition) came to 12.1%.
On to `CCOc1ccc(C[C@H]2NC(=O)CC3(CCCCC3)SSC[C@@H](C(=O)N3CCC[C@H]3C(=O)N[C@@H](CCCNC(=N)N)C(N)=O)NC(=O)[C@H](CC(N)=O)NC(=O)[C@H](CC)NC(=O)[C@H](Cc3ccccc3)NC2=O)cc1` [Compound 6] ([dY](Et)F[Abu]NCPR-NH2; linker N-5 via X1), for which the Kb in [3] is 0.018 µM.

For orientation: Ki means the equilibrium dissociation constant of an inhibitor or competing ligand from its target. As a reminder, the inhibition is how much of the control response was suppressed.

The record behind these values is patent publication US4587045A, “Intermediates for preparing octapeptide vasopressin antagonists” (SmithKline Beckman Corporation, priority 1985, dated 1986).
